Experimental findings from paper PMC8213057, “Targeting ALK2: An Open Science Approach to Developing Therapeutics for the Treatment of Diffuse Intrinsic Pontine Glioma” (Journal of Medicinal Chemistry, 2020) are described below.

The target in one assay is T1, BRSK2 (Homo sapiens, UniProt Q8IWQ3).
T1 sequence (Q8IWQ3 1-736): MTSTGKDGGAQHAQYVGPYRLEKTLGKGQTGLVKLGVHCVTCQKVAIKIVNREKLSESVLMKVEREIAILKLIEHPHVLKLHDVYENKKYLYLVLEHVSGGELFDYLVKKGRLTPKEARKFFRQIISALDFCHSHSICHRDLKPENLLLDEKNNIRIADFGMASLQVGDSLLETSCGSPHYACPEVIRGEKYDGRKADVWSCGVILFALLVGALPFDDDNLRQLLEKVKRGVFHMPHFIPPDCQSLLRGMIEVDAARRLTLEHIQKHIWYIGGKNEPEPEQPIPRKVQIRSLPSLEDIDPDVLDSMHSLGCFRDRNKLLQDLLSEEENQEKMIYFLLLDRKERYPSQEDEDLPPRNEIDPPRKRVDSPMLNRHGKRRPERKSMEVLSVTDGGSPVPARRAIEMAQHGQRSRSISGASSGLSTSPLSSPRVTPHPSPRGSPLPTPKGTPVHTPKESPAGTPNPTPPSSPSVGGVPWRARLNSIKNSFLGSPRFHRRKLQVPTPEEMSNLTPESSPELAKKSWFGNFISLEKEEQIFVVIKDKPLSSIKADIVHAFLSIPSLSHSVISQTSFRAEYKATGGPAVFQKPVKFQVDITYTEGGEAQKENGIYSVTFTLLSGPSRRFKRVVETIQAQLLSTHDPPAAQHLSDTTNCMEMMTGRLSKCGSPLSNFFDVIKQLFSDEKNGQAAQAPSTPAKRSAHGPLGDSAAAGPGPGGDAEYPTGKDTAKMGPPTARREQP
Nature of the assay: biochemical. The conditions noted are these: read-out: % enzyme activity, 1 μM; Run 1, Run 2.

For another assay, the target named is T2, IRAK4 (Homo sapiens, UniProt Q9NWZ3).
T2 sequence (Q9NWZ3 1-460): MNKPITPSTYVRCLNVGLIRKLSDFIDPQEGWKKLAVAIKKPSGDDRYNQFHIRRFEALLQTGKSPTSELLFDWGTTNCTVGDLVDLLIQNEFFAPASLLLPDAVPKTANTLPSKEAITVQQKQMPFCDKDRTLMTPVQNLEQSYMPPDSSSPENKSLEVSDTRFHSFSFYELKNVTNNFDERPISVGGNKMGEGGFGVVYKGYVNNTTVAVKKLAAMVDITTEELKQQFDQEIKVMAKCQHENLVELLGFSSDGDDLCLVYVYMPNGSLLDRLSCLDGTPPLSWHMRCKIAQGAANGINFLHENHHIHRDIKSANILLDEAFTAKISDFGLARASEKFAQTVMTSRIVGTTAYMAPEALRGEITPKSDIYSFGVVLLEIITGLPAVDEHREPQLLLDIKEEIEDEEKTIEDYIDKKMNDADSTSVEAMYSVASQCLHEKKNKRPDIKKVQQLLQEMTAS
Nature of the assay: biochemical. Conditions: read-out: % enzyme activity, 1 μM; Run 1, Run 2.

A further assay addresses LRRK2 (Homo sapiens, UniProt Q5S007). Kind of assay: biochemical. The conditions noted are these: read-out: % enzyme activity, 1 μM; Run 1, Run 2.
A further assay deals with T3, MKK4 (Homo sapiens, UniProt P45985).
T3 sequence (P45985 1-399): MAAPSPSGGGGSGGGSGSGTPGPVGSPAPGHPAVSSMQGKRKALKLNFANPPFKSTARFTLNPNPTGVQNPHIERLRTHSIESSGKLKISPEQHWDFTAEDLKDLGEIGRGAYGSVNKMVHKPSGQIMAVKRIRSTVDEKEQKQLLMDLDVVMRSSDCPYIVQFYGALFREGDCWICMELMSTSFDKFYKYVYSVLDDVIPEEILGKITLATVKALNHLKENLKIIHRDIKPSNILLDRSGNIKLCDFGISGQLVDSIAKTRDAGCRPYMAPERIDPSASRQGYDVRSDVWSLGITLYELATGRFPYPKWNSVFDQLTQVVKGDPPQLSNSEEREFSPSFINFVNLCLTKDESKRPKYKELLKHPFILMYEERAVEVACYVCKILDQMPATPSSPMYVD
Kind of assay: biochemical. The conditions noted are these: read-out: % enzyme activity, 1 μM; Run 1, Run 2.

In another assay the target is PIM2 (Homo sapiens, UniProt Q9P1W9). Nature of the assay: biochemical. Conditions: read-out: % enzyme activity, 1 μM; Run 1, Run 2.
Sequence of PIM2 (Q9P1W9 whole entry): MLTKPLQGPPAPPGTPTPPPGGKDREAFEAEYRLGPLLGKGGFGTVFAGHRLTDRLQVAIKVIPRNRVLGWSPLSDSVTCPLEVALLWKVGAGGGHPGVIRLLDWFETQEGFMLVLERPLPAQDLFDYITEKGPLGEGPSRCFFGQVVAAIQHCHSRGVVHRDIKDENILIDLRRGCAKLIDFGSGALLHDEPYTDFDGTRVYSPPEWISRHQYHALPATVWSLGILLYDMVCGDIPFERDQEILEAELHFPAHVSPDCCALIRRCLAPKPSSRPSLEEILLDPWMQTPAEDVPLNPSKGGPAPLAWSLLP
Another assay deals with T4, EPHB1 (Homo sapiens, UniProt P54762).
T4 sequence (P54762 18-984): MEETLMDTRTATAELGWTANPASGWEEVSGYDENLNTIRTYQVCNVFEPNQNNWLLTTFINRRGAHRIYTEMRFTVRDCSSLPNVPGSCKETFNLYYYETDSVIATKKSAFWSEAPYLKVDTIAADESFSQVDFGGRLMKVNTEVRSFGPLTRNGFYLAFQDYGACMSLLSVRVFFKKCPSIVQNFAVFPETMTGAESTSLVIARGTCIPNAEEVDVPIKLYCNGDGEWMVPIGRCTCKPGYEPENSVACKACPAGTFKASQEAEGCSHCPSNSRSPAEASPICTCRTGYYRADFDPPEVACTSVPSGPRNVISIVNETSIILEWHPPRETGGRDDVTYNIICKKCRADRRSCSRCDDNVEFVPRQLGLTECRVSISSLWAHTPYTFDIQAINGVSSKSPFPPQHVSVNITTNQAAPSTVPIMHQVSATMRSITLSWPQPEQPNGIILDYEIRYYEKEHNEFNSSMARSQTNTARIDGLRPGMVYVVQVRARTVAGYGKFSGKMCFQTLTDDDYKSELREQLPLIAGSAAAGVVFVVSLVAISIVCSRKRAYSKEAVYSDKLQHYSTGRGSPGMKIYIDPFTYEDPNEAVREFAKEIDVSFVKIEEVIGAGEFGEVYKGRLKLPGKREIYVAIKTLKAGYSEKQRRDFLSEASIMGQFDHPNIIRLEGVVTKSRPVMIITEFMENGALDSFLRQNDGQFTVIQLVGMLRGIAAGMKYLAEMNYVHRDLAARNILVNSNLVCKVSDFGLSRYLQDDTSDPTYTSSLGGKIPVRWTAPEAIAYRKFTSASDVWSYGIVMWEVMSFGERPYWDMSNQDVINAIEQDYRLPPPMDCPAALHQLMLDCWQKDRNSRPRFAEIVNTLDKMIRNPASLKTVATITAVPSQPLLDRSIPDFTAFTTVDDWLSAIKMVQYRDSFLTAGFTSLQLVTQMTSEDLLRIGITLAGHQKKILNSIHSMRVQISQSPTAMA
Nature of the assay: biochemical. The conditions noted are these: read-out: % enzyme activity, 1 μM; Run 1, Run 2.

In another assay the target is PAK5 (Homo sapiens, UniProt Q9P286). The conditions noted are these: 1 μM; Run 1, Run 2.
Sequence of PAK5 (Q9P286 whole entry): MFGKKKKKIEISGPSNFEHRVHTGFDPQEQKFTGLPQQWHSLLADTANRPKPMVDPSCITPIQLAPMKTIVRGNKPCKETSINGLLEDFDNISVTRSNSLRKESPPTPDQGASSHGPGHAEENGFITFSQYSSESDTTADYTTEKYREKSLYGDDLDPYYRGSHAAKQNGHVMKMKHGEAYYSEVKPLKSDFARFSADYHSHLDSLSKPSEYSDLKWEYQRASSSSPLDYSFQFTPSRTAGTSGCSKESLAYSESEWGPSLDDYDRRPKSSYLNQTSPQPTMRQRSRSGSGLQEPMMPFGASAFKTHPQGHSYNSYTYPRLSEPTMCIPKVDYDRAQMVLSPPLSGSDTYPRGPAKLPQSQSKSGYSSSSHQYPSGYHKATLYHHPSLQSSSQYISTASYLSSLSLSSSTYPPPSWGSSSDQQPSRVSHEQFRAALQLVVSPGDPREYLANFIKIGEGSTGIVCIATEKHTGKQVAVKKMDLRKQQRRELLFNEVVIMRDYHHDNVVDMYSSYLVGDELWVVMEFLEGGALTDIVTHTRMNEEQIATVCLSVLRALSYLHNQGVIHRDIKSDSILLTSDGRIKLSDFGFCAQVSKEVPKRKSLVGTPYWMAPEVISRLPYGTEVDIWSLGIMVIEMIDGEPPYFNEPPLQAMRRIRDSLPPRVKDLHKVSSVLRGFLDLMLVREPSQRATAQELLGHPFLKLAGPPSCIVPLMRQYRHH
For a further assay, the target named is p70S6Kb/RPS6KB2 (Homo sapiens, UniProt Q9UBS0). Nature of the assay: biochemical. The conditions noted are these: read-out: % enzyme activity, 1 μM; Run 1, Run 2.
Sequence of p70S6Kb/RPS6KB2 (Q9UBS0 whole entry): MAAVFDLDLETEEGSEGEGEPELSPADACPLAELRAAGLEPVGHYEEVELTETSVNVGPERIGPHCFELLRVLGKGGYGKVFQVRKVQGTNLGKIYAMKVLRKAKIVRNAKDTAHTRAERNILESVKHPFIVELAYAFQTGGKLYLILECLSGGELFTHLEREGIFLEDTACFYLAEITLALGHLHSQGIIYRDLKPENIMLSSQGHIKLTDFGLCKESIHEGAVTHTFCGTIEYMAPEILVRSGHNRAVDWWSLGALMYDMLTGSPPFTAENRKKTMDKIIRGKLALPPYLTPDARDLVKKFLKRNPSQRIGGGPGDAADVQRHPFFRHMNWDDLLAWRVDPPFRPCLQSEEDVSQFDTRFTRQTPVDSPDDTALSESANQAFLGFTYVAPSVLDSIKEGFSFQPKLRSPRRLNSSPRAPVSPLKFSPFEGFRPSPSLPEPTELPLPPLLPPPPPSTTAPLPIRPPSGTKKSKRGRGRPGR
For a further assay, the target named is FLT1/VEGFR1 (Homo sapiens, UniProt P17948). Kind of assay: biochemical. The conditions noted are these: read-out: % enzyme activity, 1 μM; Run 1, Run 2.
The target in the next assay is PLK3 (Homo sapiens, UniProt Q9H4B4). Nature of the assay: biochemical. Conditions: read-out: % enzyme activity, 1 μM; Run 1, Run 2.
Sequence of PLK3 (Q9H4B4 whole entry): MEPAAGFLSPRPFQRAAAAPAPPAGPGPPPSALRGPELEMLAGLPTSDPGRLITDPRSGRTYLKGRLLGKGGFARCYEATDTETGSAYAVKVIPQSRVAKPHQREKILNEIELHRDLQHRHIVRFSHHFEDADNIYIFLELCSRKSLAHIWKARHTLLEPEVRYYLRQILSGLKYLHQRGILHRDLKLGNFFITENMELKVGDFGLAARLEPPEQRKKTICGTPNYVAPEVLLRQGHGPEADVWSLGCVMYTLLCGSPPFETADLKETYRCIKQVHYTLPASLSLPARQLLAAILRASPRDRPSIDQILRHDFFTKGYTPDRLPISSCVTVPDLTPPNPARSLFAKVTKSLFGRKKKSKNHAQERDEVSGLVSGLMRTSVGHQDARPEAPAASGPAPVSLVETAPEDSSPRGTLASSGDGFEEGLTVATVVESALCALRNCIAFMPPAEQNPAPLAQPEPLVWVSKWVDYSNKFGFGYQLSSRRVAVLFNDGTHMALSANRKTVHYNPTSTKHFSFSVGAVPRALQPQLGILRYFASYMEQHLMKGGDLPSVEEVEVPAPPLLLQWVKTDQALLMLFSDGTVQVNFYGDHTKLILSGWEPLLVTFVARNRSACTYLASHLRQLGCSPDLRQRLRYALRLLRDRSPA

The structures appear in SMILES notation.

Sequence of LRRK2 (Q5S007 whole entry): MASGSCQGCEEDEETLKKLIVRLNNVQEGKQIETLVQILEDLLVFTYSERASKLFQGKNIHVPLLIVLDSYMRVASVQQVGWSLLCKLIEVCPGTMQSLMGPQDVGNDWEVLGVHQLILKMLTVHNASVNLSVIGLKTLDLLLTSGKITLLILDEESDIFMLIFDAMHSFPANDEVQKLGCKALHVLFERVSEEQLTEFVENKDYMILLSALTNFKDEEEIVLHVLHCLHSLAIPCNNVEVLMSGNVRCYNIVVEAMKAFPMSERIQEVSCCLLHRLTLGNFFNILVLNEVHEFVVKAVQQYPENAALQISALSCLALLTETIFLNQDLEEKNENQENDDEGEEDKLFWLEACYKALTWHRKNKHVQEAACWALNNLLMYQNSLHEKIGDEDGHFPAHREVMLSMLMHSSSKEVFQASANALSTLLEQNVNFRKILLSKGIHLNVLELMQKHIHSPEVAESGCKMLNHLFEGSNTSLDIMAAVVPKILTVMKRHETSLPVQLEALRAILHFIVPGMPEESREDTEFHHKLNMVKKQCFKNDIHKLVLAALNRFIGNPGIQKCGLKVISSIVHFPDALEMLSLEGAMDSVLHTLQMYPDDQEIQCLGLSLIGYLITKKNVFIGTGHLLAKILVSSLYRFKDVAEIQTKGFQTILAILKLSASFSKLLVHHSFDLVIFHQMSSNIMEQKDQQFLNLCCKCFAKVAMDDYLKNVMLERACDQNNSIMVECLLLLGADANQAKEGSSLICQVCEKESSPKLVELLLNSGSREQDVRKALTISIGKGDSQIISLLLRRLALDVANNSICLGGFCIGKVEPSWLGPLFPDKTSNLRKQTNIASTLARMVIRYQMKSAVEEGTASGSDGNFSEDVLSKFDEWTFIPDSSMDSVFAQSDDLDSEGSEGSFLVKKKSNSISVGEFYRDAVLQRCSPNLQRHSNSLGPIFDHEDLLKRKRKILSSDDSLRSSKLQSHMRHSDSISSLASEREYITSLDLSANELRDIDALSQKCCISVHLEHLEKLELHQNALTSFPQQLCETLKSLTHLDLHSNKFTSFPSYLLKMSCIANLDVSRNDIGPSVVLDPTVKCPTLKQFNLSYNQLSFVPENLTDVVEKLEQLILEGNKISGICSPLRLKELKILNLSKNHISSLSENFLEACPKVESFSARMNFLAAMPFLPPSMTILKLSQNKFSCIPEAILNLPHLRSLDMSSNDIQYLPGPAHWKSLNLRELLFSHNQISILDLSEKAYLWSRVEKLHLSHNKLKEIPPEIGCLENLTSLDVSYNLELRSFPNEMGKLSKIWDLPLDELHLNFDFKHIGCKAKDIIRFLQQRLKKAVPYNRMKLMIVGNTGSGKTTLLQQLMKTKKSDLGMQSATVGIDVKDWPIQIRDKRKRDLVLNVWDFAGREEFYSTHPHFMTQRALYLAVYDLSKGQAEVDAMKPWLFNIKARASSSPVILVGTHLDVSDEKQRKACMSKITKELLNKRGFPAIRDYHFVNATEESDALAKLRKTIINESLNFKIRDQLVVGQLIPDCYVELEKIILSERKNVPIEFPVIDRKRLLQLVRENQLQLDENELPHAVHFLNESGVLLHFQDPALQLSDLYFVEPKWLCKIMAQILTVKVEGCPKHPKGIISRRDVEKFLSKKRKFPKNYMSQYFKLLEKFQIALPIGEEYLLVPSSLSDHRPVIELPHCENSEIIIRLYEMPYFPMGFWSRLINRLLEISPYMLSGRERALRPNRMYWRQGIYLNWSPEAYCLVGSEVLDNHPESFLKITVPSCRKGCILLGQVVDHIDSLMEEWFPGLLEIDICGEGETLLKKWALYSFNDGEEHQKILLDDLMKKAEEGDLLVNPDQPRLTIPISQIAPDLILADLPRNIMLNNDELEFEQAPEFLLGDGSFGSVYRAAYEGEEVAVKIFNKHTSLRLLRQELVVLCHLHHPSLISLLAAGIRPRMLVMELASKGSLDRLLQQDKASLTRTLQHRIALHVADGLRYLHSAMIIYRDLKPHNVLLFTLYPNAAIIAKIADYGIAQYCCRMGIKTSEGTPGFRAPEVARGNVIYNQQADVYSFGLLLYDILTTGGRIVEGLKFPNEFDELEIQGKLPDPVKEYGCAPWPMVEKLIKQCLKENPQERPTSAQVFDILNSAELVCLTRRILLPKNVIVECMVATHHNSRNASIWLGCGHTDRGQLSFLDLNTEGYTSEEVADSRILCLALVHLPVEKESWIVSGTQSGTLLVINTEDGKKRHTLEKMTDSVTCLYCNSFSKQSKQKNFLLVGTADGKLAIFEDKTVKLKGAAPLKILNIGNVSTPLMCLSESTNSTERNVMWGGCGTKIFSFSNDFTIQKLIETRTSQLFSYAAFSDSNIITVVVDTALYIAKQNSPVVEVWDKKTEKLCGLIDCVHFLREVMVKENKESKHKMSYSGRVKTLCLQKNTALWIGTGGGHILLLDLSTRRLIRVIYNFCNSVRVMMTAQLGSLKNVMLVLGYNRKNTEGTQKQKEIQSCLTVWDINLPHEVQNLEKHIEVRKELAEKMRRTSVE

Regarding `COc1cc(-c2cncc(-c3ccc(N4CCN(C)CC4)cc3)c2C)cc(F)c1C(N)=O` [Compound 26a, 2-Fluoro-6-methoxy-4-(4-methyl-5-(4-(4-methylpiperazin-1-yl)phenyl)pyridin-3-yl)benzamide], the remaining activity at 1 µM at BRSK2 turned out to be 61.3%; at IRAK4, 78.5%; on LRRK2, 60.1%; at MKK4 it was 101%; on PIM2, 99.2%; on EPHB1 it was 95.5%. Moreover, the remaining activity at 1 µM came to 97.3% on p70S6Kb/RPS6KB2, 107% at FLT1/VEGFR1 and 95% at PLK3. Further, at PAK5, the “% enzyme activity” value is reported as 92.74%.
On to `COc1cc(-c2cncc(-c3ccc(N4C[C@@H](C)N(C)[C@@H](C)C4)cc3)c2C)cc(F)c1C(N)=O` [Compound 26c, 2-Fluoro-6-methoxy-4-(4-methyl-5-(4-((3R,5S)-3,4,5-trimethylpiperazin-1-yl)phenyl)pyridin-3-yl)benzamide], for which the remaining activity at 1 µM on BRSK2 stood at 77.9%; at IRAK4, 84.9%; on LRRK2, 78.3%; at MKK4, 94.6%; on PIM2, 99.7%; at EPHB1, 92.6%. In addition, the remaining activity at 1 µM on p70S6Kb/RPS6KB2 turned out to be 102%; on FLT1/VEGFR1, 108%; at PLK3, 97.7%. For the same molecule, the “% enzyme activity” value at PAK5 amounted to 94.99%.
